Source: the METLIN SMRT retention time set (Domingo-Almenara et al. 2019)

Test: gradient 5% acetonitrile 3 min, to 50% in 2 min, to 85% in 15 min, held 3 min, 100 µL/min
Details: column: Zorbax Extend-C18 2.1 x 50 mm; eluents: water / acetonitrile, 0.1% formic acid
Outline: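 In both positive and negative ionization mode, a quadrupole time-of-flight mass spectrometer coupled to HPLC analyzed pure standards run in mixtures of ~100 molecules. The Zorbax Extend-C18 column (2.1 × 50 mm, 1.8 μm) was operated at 100 μL/min with water and acetonitrile, each containing 0.1% formic acid. The dead volume was 40 μL and the dwell volume 900 μL. Retention time came from adduct peaks that were computationally picked and individually inspected by hand.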

Compound	RP-LC retention time
CC(C)n1nnc2cc(C(=O)N(C)CC(=O)Nc3ccc(F)cc3)ccc21	726 s
COc1ccc(OC)c(S(=O)(=O)Cc2nc(-c3ccc(Cl)cc3)no2)c1	1030 s
COc1cc(NC(=O)N2CCC(CN3CC(C)CC(C)C3)CC2)cc(OC)c1OC (centres undefined)	625 s
CC(=O)Nc1nc(N2CCC(C(=O)NCc3ccccc3)CC2)sc1C(=O)N1CCCC1	699 s
Cc1ccc(CN2C(=O)NC3(CCN(C(=O)c4ccc[nH]4)CC3)C2=O)cc1	767 s
Cc1cccc(NC(=O)C(=O)NCc2ccccn2)n1	565 s
CCCCn1c(=O)c2ccccc2n(Cc2nc(-c3cccc(OC)c3)no2)c1=O	1160 s
CC(C)NC(=O)c1ccc2ncnc(N3CCCCC3)c2c1	586 s
CCOC(=O)c1ccccc1NC(=O)Cn1nc2c(N3CCSCC3)nccn2c1=O	1010 s
O=S(=O)(c1ccc(Cl)cc1)N1CC(F)(F)C[C@H]1CN1CCc2ccccc2C1	647 s
O=C(COCc1nnc(C(=O)Nc2cccc(Cl)c2)s1)NCCc1c[nH]c2ccccc12	930 s
COc1ccc(OCc2nc(-c3ccc4oc(C)nc4c3)no2)cc1	984 s
O=C(COc1ccc(F)cc1)Nc1cc(F)c2nc(N3CCOCC3)ccc2c1	882 s
CCOC(=O)Cc1nnc(-c2cc(OC)cc(OC)c2)o1	836 s
O=C(NCCCN1CCCc2ccccc21)c1nnc(-c2ccc(S(=O)(=O)N3CCCC3)cc2)o1	1020 s
COc1ccc2c3c([nH]c2c1)[C@H](C=C(C)C)N1C(=O)[C@@H]2CCCN2C(=O)[C@@H]1C3	871 s
O=C(NCc1ccc(F)cc1)C1CCN(C(=O)c2ncn3c2COC(c2ccc(F)cc2)C3)CC1 (centres undefined)	784 s
CN(C)C(=O)c1csc(N2CCN(c3cccc(Cl)c3)CC2)n1	949 s
Cc1cccc(CC(=O)N2C[C@@H]3C[C@H]2C[C@@H]3NC(=O)c2cccs2)c1	778 s
COc1cccc2nc3cc(C)c(C)cc3nc12	868 s
COC(=O)c1cccc(C(=O)Nc2ccc(Br)cc2F)n1	1000 s
COCc1cc(=O)n(CC(=O)Nc2cc(C)cc(C)c2)c(N2CCOCC2)n1	893 s

Compound	RP-LC retention time
CNC(=O)C1CN(C(=O)Nc2cc(C)ccc2C)CC12CCCC2 (centres undefined)	715 s
Cc1ccnc(Nc2nc(C)c(C(=O)N3CCC(C(N)=O)(N4CCCCC4)CC3)s2)c1	561 s
O=C(C1=NNc2ccc(Cl)cc2S1(=O)=O)N1CCOCC1	663 s
Cc1nnc(-c2ccc3ccn(CC(=O)N4CCN(c5ccc(F)cc5)CC4)c3c2)o1	827 s
Cc1ccc(CN2CCC3(CC2)CC(O)(c2ccccn2)CCO3)nc1 (centres undefined)	539 s
Cc1ccc(Sc2nccnc2N2CCCC(C(=O)NCc3ccc(N(C)C)cc3)C2)cc1 (centres undefined)	837 s
CCc1cc(=O)n(CC(=O)Nc2ccc3c(c2)OCCO3)c(N2CCOCC2)n1	681 s
O=C(NCCc1ccccc1)N1CCCn2nc(-c3ccncc3)cc2C1	583 s
CCOCCCNC(=O)c1cc2n(n1)CCCN(Cc1ccc(Cl)cc1)C2=O	797 s
Cc1ccc(/C=C2\CNC/C(=C\c3ccc(C)cc3)C2=O)cc1	734 s
Cc1ccccc1-c1nnc(CSc2nnc(NC(=O)C3CC3)s2)o1	822 s
CC(C)(C)c1noc(-c2ccnc(-n3cnc(C(=O)NC4CC4)c3)c2)n1	877 s
COc1ccccc1C(=O)N1CCCC1c1nc(-c2ccc(F)cc2F)no1 (centres undefined)	1020 s
O=C(NCc1ccccn1)C1(CCO)CCN(c2ncccn2)C1 (centres undefined)	522 s
CCOc1ccccc1-n1c(C(C)N2CCN(C(=O)COc3ccc(Cl)cc3)CC2)nc2ccccc2c1=O (centres undefined)	802 s
CCNc1cc(N2CCC(CCC(=O)NCc3ccccc3OC)CC2)ncn1	650 s
O=C(c1ccccn1)N1CCN(C(=O)c2nnn3c2COC(c2ccc(Cl)cc2)C3)CC1 (centres undefined)	784 s
Cc1ccc(C)c(NC(=O)c2cc(C)n3nc(C)cc3n2)c1	1090 s
CN(C)CCn1ccc2ccn(CC(=O)NCc3ccccc3)c(=O)c21	606 s
O=C(Cn1nc2ccc(C(=O)NCc3ccccc3)cn2c1=O)NC1CCc2ccccc21 (centres undefined)	766 s
Cc1cc(-c2nnc(C3CC3)o2)c(C)n1CC(=O)NCc1ccccc1Cl	769 s
O=C(NCc1ccccc1)N1CCN(Cc2nc3ccc(Cl)cc3o2)CC1	723 s
